The source of these data is patent publication US10538099B2, “Inkjet recording apparatus, printer, and method for manufacturing cured product” (Ricoh Company, Ltd., priority 2016, dated 2020).

The conditions of data set [1]: evaluated by a test method based on OECD Test Guideline 406 in MSDS; cited from earlier work.
The test system of data set [2] is female mice. As to the kind of experiment: Skin sensitization test according to the LLNA (Local Lymph Node Assay), BrdU intake. Type of data set: in vivo. The settings on record: test substance 50.0 w/v % in acetone/olive oil 4/1, 25 μL/auricle once a day for three days; SI less than 3 = negative in skin sensitizing property. The procedure:
Stimulus index (SI) was measured by a skin sensitization test according to the LLNA (Local Lymph Node Assay) as follows.
As a positive control, α-hexyl cinnamaldehyde (HCA, product of Wako Pure Chemical Industries, Ltd.) was used.
As a medium, a mixture liquid of acetone (product of Wako Pure Chemical Industries, Ltd.) and olive oil (product of Fudimi Pharmaceutical Co., Ltd.) in a volume ratio of 4/1 was used.
Before treated with the test materials, the positive control, or the medium control, female mice were acclimated for 8 days including 6-day quarantine. No abnormalities were found in all the mice (used animals) during the quarantine/acclimation period.
Based on the body weights measured 2 days before the initiation of sensitization, they were categorized into 2 groups (4 mice/group) by the body weight stratified random sampling method so that the body weight of each individual was within ±20% of the average body weight of all the individuals. Each of the used animals was 8 weeks old to 9 weeks old at the time of the initiation of sensitization. […]
About 24 hours after the administration of BrdU, the used animals were allowed to undergo euthanasia, and their auricular lymph nodes were sampled. […] Also, the average of the weights of the auricular lymph nodes and the standard error thereof were calculated for each group. […]

The conditions of data set [3]: evaluated by Maximization test method according to the document; cited from earlier work.
For data set [4] the following is noted: risk phrase code R43 or H317; cited from earlier work.

Read-outs that look alike come from different tables or passages of the source.

Take `O=C(c1ccccc1)C1(O)CCCCC1` [1-Hydroxy-cyclohexyl phenyl ketone]: the skin sensitizing property result in data set [1] is “None”.
Turning to `CCC(Cc1ccc(C)cc1)(C(=O)c1ccc(N2CCOCC2)cc1)N(C)C` (stereo not drawn) [2-Dimethylamino-2-(4-methylbenzyl)-1-(4-morpholine-4-yl-phenyl)butane-1-one], the skin sensitizing property entry in data set [1] is “None”.
As for `C=C(C)C(=O)OCC(CO)OC(=O)C(=C)C` (stereo not drawn) [Glycerol dimethacrylate], the “SI measured by the LLNA test (stimulus index)” value in data set [2] is 1.2.
Consider `C=C(C)C(=O)OCCCCCC` [n-Hexyl methacrylate], for which, in data set [3], the skin sensitizing property entry is “Negative”.
Turning to `C=C(C)C(=O)OCCCCC` [n-Pentyl methacrylate], the skin sensitizing property entry in data set [3] is “Negative”.
In the case of `C=CC(=O)OC(C)(C)C` [t-Butyl acrylate], the skin sensitizing property entry in data set [4] was “Positive”.
Consider `C=C(C)C(=O)OC(C)(C)C` [t-Butyl methacrylate], for which the skin sensitizing property result in data set [3] was “Negative”.
In the case of “Caprolactone-modified dipentaerythritol hexaacrylate”, the skin sensitizing property result in data set [1] is “Negative”.
In the case of “Tricyclodecane dimethanol dimethacrylate”, the “SI measured by the LLNA test (stimulus index)” value in data set [2] was 1.3.
